{"source": "patent US4746667A", "about": "“Pharmaceutical composition containing 2-(2-benzimidazolyl thiomethyl) pyridine” (priority 1981, dated 1988)", "data": [{"system": "gastric acid secretion", "assay": "Gastric Acid Secretion Inhibiting Effect on Conscious Dogs", "format": "in vivo", "settings": "Canis lupus familiaris; dose 2 μmol/kg, oral (stomach tube), free base suspended in 0.5% Methocel; histamine-stimulated conscious Heidenhain pouch dogs; gastric juice collected 3 hours", "method": "(§1) Gastric Acid Secretion Inhibiting Effect on Conscious Dogs\n(§2) Chronic gastric fistula dogs (Heidenhain pouch dogs) were used. These dogs have been surgically provided with a gastric cannula in the pouch. Following a 4 weeks' recovery period after surgery, tests were performed once a week on each dog. Food and water were withdrawn 18 hours before each test.\n(§3) Gastric acid secretion was induced by continuous infusion of histamine at individual doses (100-300 μmol/kg, h), resulting in submaximal secretion of gastric acid. At least 2 hours after onset of stimulation, when the gastric acid secertion had reached a steady level, the test compounds in the form of free base suspended in 0.5% Methocel® (90 HG, 15.000, Dow Chem. corp.), were given orally by stomach tube. The gastric juice was collected by free flow from the gastric cannula in consecutive 30 minutes samples for 3 hours. The samples were titrated to pH 7.0 with 0.1M NaOH using a Radio-meter automatic titrator and the acid output was calculated.\n(§4) The percent inhibition of acid secretion was calculated by comparing in each dog the acid output in the tests to the acid output in control tests when only the vehicle was given.", "units": {"inhibition in vivo at 2 µmol/kg": "%"}, "values": [{"smiles": "COc1c(C)cnc(CSc2nc3cc(C)ccc3[nH]2)c1C", "note": "[5-CH3, H, H, CH3, OCH3, CH3]", "inhibition in vivo at 2 µmol/kg": 60}, {"smiles": "COc1c(C)cnc(CSc2nc3cc(C(C)=O)c(C)cc3[nH]2)c1C", "note": "[5-COCH3,6-CH3, H, CH3, OCH3, CH3, 2-[2-(3,5-dimethyl-4-methoxy)pyridylmethylthio]-5-COCH3-6-CH3-benzimidazole]", "inhibition in vivo at 2 µmol/kg": 35}, {"smiles": "COC(=O)c1cc2nc(SCc3ncc(C)c(OC)c3C)[nH]c2cc1C", "note": "[5-COOCH3,6-CH3, H, CH3, OCH3, CH3, 2-[2-(3,5-dimethyl-4-methoxy)pyridylmethylthio]-(5-carbomethoxy-6-methyl)benzimidazole]", "inhibition in vivo at 2 µmol/kg": 80}, {"smiles": "COc1ccc2[nH]c(SCc3ncc(C)c(C)c3C)nc2c1", "note": "[5-OCH3, H, H, CH3, CH3, CH3]", "inhibition in vivo at 2 µmol/kg": 75}, {"smiles": "COc1ccc2[nH]c(SCc3ncc(C)c(OC)c3C)nc2c1", "note": "[5-OCH3, H, H, CH3, OCH3, CH3, 2-[2-(3,5-dimethyl-4-methoxy)pyridylmethylthio]-(5-methoxy)benzimidazole]", "inhibition in vivo at 2 µmol/kg": 75}]}, {"system": "gastric acid secretion", "assay": "Gastric Acid Secretion Inhibiting Effect on Conscious Dogs", "format": "in vivo", "settings": "Canis lupus familiaris; dose 8 μmol/kg, oral (stomach tube), free base suspended in 0.5% Methocel; histamine-stimulated conscious Heidenhain pouch dogs; gastric juice collected 3 hours", "method": "as §1, §2, §3, §4", "units": {"inhibition in vivo at 8 µmol/kg": "%"}, "values": [{"smiles": "CC(=O)c1cc2nc(SCc3cc(C)c(C)cn3)[nH]c2cc1C", "note": "[5-COCH3,6-CH3, H, H, CH3, CH3]", "inhibition in vivo at 8 µmol/kg": 80}, {"smiles": "COc1c(C)cnc(CSc2nc3cc(C(C)=O)ccc3[nH]2)c1C", "note": "[5-COCH3, H, H, CH3, OCH3, CH3]", "inhibition in vivo at 8 µmol/kg": 90}, {"smiles": "COC(=O)c1ccc2[nH]c(SCc3ncc(C)c(OC)c3C)nc2c1", "note": "[5-COOCH3, H, H, CH3, OCH3, CH3]", "inhibition in vivo at 8 µmol/kg": 50}]}]}
